{"source": "ChEMBL document CHEMBL1150051", "about": "“Antiviral (RNA) activity of selected Amaryllidaceae isoquinoline constituents and synthesis of related substances” (J Nat Prod, 1992)", "key": {"Mus musculus [1]": {"tested_on": "Mus musculus", "assay": "Toxicity in C57BL/6 mouse assessed as body weight loss at 40 mg/kg/day, sc once daily for 7 days", "assay_type": "organism-based", "parameters": "route subcutaneous", "conditions": "in vivo, 168 h"}, "[2]": {"tested_on": "Japanese encephalitis virus", "assay": "Antiviral activity against Japanese encephalitis virus Beijing infected in low viral dose challenge C57BL/6 mouse model assessed as average day of death at 40 mg/kg/day, sc once daily for 7 days administered 1 day before infection measured after 28 days post infection", "assay_type": "functional", "conditions": "route subcutaneous"}, "[3]": {"tested_on": "Japanese encephalitis virus", "assay": "Antiviral activity against Japanese encephalitis virus Beijing infected in low viral dose challenge C57BL/6 mouse model assessed as average day of death at 20 mg/kg/day, sc once daily for 7 days administered 1 day before infection measured after 28 days post infection", "assay_type": "functional", "conditions": "route subcutaneous"}, "[4]": {"tested_on": "Japanese encephalitis virus", "assay": "Antiviral activity against Japanese encephalitis virus Beijing infected in low viral dose challenge C57BL/6 mouse model assessed as average day of death at 10 mg/kg/day, sc once daily for 7 days administered 1 day before infection measured after 28 days post infection", "assay_type": "functional", "conditions": "route subcutaneous"}, "[5]": {"tested_on": "Japanese encephalitis virus", "assay": "Antiviral activity against Japanese encephalitis virus Beijing infected in low viral dose challenge C57BL/6 mouse model assessed as survival rate at 40 mg/kg/day, sc once daily for 7 days administered 1 day before infection measured after 28 days post infection relative to control", "assay_type": "functional", "conditions": "route subcutaneous"}, "[6]": {"tested_on": "Japanese encephalitis virus", "assay": "Antiviral activity against Japanese encephalitis virus Beijing infected in low viral dose challenge C57BL/6 mouse model assessed as survival rate at 20 mg/kg/day, sc once daily for 7 days administered 1 day before infection measured after 28 days post infection relative to control", "assay_type": "functional", "conditions": "route subcutaneous"}, "[7]": {"tested_on": "Japanese encephalitis virus", "assay": "Antiviral activity against Japanese encephalitis virus Beijing infected in low viral dose challenge C57BL/6 mouse model assessed as survival rate at 10 mg/kg/day, sc once daily for 7 days administered 1 day before infection measured after 28 days post infection relative to control", "assay_type": "functional, organism-based"}, "[8]": {"tested_on": "Japanese encephalitis virus", "assay": "Antiviral activity against Japanese encephalitis virus Nakayama infected in african green monkey Vero cells assessed as inhibition of virus-induced cytopathic effect by MTT assay", "assay_type": "functional, organism-based", "conditions": "Japanese encephalitis virus, Nakayama, Vero; read-out: IC50"}, "[9]": {"assay": "Therapeutic index, ratio of TC50 for african green monkey Vero cells to IC50 for Japanese encephalitis virus Nakayama", "assay_type": "cell-based", "conditions": "read-out: TI"}, "Yellow fever virus": {"tested_on": "Yellow fever virus", "assay": "Antiviral activity against Yellow fever virus Ashibi infected in african green monkey Vero cells assessed as inhibition of virus-induced cytopathic effect by MTT assay", "assay_type": "functional, organism-based", "conditions": "Yellow fever virus, Ashibi, Vero; read-out: IC50"}, "[10]": {"assay": "Therapeutic index, ratio of TC50 for african green monkey Vero cells to IC50 for Yellow fever virus Ashibi", "assay_type": "cell-based", "conditions": "read-out: TI"}, "dengue virus type 4": {"tested_on": "dengue virus type 4", "assay": "Antiviral activity against Dengue virus type 4 infected in african green monkey Vero cells after 6 days by plaque reduction assay", "assay_type": "functional, organism-based", "conditions": "Dengue virus, Vero, 144 h; read-out: IC50"}, "[11]": {"assay": "Therapeutic index, ratio of TC50 for african green monkey Vero cells to IC50 for Dengue type 4 virus", "assay_type": "cell-based", "conditions": "read-out: TI"}, "[12]": {"tested_on": "Venezuelan equine encephalitis virus", "assay": "Antiviral activity against Venezuelan equine encephalitis virus Trinidad donkey infected in african green monkey Vero cells assessed as inhibition of virus-induced cytopathic effect by MTT assay", "assay_type": "functional, organism-based"}, "[13]": {"tested_on": "Human immunodeficiency virus 1", "assay": "Antiviral activity against HIV1 by cells based assay", "assay_type": "functional, organism-based"}, "Vaccinia virus": {"tested_on": "Vaccinia virus", "assay": "Antiviral activity against Vaccinia virus Lederle vaccine infected in african green monkey Vero cells assessed as inhibition of virus-induced cytopathic effect by MTT assay", "assay_type": "functional, organism-based", "conditions": "Orthopoxvirus vaccinia"}, "Punta Toro virus": {"tested_on": "Punta Toro virus", "assay": "Antiviral activity against Punta Toro virus Adames infected in african green monkey Vero cells assessed as inhibition of virus-induced cytopathic effect by MTT assay", "assay_type": "functional, organism-based", "conditions": "Punta Toro virus, Adames, Vero; read-out: IC50"}, "[14]": {"assay": "Therapeutic index, ratio of TC50 for african green monkey Vero cells to IC50 for Punta toro virus Adames", "assay_type": "cell-based", "conditions": "read-out: TI"}, "Rift Valley fever virus": {"tested_on": "Rift Valley fever virus", "assay": "Antiviral activity against Rift Valley fever virus infected in african green monkey Vero cells after 6 days by plaque reduction assay", "assay_type": "functional, organism-based", "conditions": "Rift Valley fever virus, Vero, 144 h; read-out: IC50"}, "[15]": {"assay": "Therapeutic index, ratio of TC50 for african green monkey Vero cells to IC50 for Rift valley fever virus", "assay_type": "cell-based", "conditions": "read-out: TI"}, "[16]": {"tested_on": "Sandfly fever Sicilian virus", "assay": "Antiviral activity against Sandfly fever sicilian virus infected in african green monkey Vero cells assessed as inhibition of virus-induced cytopathic effect by MTT assay", "assay_type": "functional, organism-based", "conditions": "sandfly fever Sicilian virus, Vero; read-out: IC50"}, "[17]": {"assay": "Therapeutic index, ratio of TC50 for african green monkey Vero cells to IC50 for Sandfly fever sicilian virus", "assay_type": "cell-based", "conditions": "read-out: TI"}, "Mus musculus [18]": {"tested_on": "Mus musculus", "assay": "Toxicity in C57BL/6 mouse assessed as average day of death at 2 mg/kg/day, sc once daily for 7 days", "assay_type": "organism-based", "parameters": "route subcutaneous", "conditions": "in vivo, 168 h"}, "Mus musculus [19]": {"tested_on": "Mus musculus", "assay": "Toxicity in C57BL/6 mouse assessed as mortality at 40 mg/kg/day, sc once daily for 7 days", "assay_type": "organism-based", "parameters": "route subcutaneous", "conditions": "in vivo, 168 h"}, "Mus musculus [20]": {"tested_on": "Mus musculus", "assay": "Toxicity in C57BL/6 mouse assessed as mortality at 20 mg/kg/day, sc once daily for 7 days", "assay_type": "organism-based", "parameters": "route subcutaneous", "conditions": "in vivo, 168 h"}, "Mus musculus [21]": {"tested_on": "Mus musculus", "assay": "Toxicity in C57BL/6 mouse assessed as mortality at 10 mg/kg/day, sc once daily for 7 days", "assay_type": "organism-based", "parameters": "route subcutaneous", "conditions": "in vivo, 168 h"}}, "note": "Active and inactive are the calls of the source. The calls are words filed in the database; no cut-off is given here."}
{"smiles": "O=C1N[C@H]2[C@H](O)[C@H](O)[C@@H](O)[C@H](O)[C@@H]2c2cc3c(cc21)OCO3", "values": [{"measurement": "Activity", "setting": "Mus musculus [1]", "result": "Toxic"}, {"measurement": "Activity", "setting": "[2]", "result": 9.5, "unit": "days"}, {"measurement": "Activity", "setting": "[3]", "result": 15, "unit": "days"}, {"measurement": "Activity", "setting": "[4]", "result": 13.6, "unit": "days"}, {"measurement": "Activity", "setting": "[5]", "result": 80, "unit": "%"}, {"measurement": "Activity", "setting": "[6]", "result": 60, "unit": "%"}, {"measurement": "Activity", "setting": "[7]", "result": "inactive"}, {"measurement": "IC50", "setting": "[8]", "result": 0.48, "unit": "µg/mL"}, {"measurement": "selectivity ratio", "setting": "[9]", "result": 5.9}, {"measurement": "IC50", "setting": "Yellow fever virus", "result": 0.4, "unit": "µg/mL"}, {"measurement": "selectivity ratio", "setting": "[10]", "result": 6.6}, {"measurement": "IC50", "setting": "dengue virus type 4", "result": 0.67, "unit": "µg/mL"}, {"measurement": "selectivity ratio", "setting": "[11]", "result": 3.7}, {"measurement": "Activity", "setting": "[12]", "result": "inactive"}, {"measurement": "Activity", "setting": "[13]", "result": "inactive"}, {"measurement": "Activity", "setting": "Vaccinia virus", "result": "inactive"}, {"measurement": "IC50", "setting": "Punta Toro virus", "result": 0.66, "unit": "µg/mL"}, {"measurement": "selectivity ratio", "setting": "[14]", "result": 4.3}, {"measurement": "IC50", "setting": "Rift Valley fever virus", "result": 5.1, "unit": "µg/mL"}, {"measurement": "selectivity ratio", "setting": "[15]", "result": 4.3}, {"measurement": "IC50", "setting": "[16]", "result": 1.7, "unit": "µg/mL"}, {"measurement": "selectivity ratio", "setting": "[17]", "result": 2.7}, {"measurement": "Activity", "setting": "Mus musculus [18]", "result": 28, "unit": "days"}, {"measurement": "Activity", "setting": "Mus musculus [19]", "result": "Non-toxic"}, {"measurement": "Activity", "setting": "Mus musculus [20]", "result": "Non-toxic"}, {"measurement": "Activity", "setting": "Mus musculus [21]", "result": "Non-toxic"}]}
